# Data published in paper PMC7440668, “Nitrogen coordinated import and export of arginine across the yeast vacuolar membrane” (PLoS Genetics, 2020).
# Key:
# Assay type in all cases: biochemical
# Avt1 = biological target: T1, Avt1 (Saccharomyces cerevisiae, UniProt P47082); assay: 3H-L-tyrosine uptake into isolated intact vacuoles, wild type versus avt1 deletion; settings: 50 μM 3H-tyrosine, 4 mM ATP, 27 °C; needs H+ gradient; labelled compound
# T1 construct: native full-length protein in isolated intact vacuoles; wild type versus avt1 deletion mutant
# T1 sequence (P47082 1-602): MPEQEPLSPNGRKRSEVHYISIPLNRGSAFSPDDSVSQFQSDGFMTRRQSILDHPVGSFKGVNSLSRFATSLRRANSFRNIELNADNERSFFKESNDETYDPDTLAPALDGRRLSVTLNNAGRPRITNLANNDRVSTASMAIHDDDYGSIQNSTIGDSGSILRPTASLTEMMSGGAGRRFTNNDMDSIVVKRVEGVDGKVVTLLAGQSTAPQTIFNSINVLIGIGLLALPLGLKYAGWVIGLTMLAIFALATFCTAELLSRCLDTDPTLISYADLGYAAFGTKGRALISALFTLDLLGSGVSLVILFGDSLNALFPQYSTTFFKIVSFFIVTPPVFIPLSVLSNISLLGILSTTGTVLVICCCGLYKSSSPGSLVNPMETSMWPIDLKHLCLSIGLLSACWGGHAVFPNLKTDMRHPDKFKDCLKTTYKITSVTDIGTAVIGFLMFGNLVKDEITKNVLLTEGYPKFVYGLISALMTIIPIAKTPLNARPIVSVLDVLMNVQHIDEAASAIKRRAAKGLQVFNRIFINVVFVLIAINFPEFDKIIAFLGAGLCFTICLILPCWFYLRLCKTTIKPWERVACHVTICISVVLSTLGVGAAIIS
# Ypq2 [1] = biological target: T2, Ypq2 (Saccharomyces cerevisiae, UniProt Q06328); assay: inhibition of Ypq2-dependent […]-Arg uptake into isolated vacuoles, […] min; settings: read-out: % inhibition at 5 mM
# T2 construct: native full-length protein in isolated intact vacuoles; ypq1-2-3 triple-mutant background subtracted from ypq1-3 double-mutant
# T2 sequence (Q06328 1-317): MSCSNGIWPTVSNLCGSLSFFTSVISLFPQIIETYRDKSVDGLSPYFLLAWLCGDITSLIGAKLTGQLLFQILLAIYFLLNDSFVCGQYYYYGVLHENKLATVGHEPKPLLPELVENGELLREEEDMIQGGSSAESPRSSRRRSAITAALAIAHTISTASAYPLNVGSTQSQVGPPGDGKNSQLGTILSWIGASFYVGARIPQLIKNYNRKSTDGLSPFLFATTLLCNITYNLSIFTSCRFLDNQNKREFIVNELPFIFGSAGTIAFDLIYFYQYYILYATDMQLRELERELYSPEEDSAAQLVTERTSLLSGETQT
# Ypq2 [2] = biological target: T2, Ypq2; assay: as above; settings: 50 μM 14C-Arg, no ATP; competitor added simultaneously
Structure (SMILES),% inhibition at 5 mM (Ypq2 [2]),other results
N[C@@H](Cc1ccc(O)cc1)C(=O)O [tyrosine],–,"3H-L-tyrosine uptake into isolated intact vacuoles, wild type versus avt1 deleti (Avt1): Nor was it detected in vacuoles isolated from the avt1Δ mutant"
NCCC[C@H](N)C(=O)O [ornithine],–,inhibition at 5000 µM (Ypq2 [1]): ~50%
N[C@@H](Cc1cnc[nH]1)C(=O)O [His],"Canavanine, the D-Arg and the L- and D-isomers of His completely inhibited the uptake",–
N=C(N)NOCC[C@H](N)C(=O)O [Canavanine],"Canavanine, the D-Arg and the L- and D-isomers of His completely inhibited the uptake",–
N=C(N)NCCC[C@@H](N)C(=O)O [D-Arg],"Canavanine, the D-Arg and the L- and D-isomers of His completely inhibited the uptake",–
NCCCC[C@H](N)C(=O)O [Lys],–,inhibition at 5000 µM (Ypq2 [1]): ~50%
N[C@H](Cc1c[nH]cn1)C(=O)O [D-isomer of His],"Canavanine, the D-Arg and the L- and D-isomers of His completely inhibited the uptake",–
